Data: paper PMC11576293, “New series of 4,6-diaryl pyrimidines: facile synthesis and antiproliferative activity as dual EGFR/VEGFR-2 inhibitors” (Frontiers in Chemistry, 2024)

Tests used:
Type in all cases: cell-based
[1] = tested on: four cancer cell lines (A-549, MCF-7, Panc-1, HT-29); test: Antiproliferative assay, average over four cancer cell lines; conditions: Homo sapiens; average of the four cancer cell lines; read-out: Average IC50 (GI50)
From the text: Table 2 presents the four cancer cell lines’ median inhibitory concentration (IC50) and GI50 (average IC50) values.
The IC50 values were derived from dose-response tests. The reported data are derived from at least two independent studies, each comprising three replicates per concentration. See Supplementary Material A1 for more details.

[2] = tested on: MCF7; test: NCI-60 single-dose screen; conditions: Homo sapiens, single dose 10 µM, '-' = no inhibition, read-out: % Growth Inhibition
Protocol: (§1) The National Cancer Institute’s Developmental Therapeutic Program (www.dtp.nci.nih.gov) has tested compounds 9–29 (except compounds 21 and 22) against 60 cancer cell lines from nine types (leukemia, lung, colon, CNS, melanoma, ovarian, renal, prostate, and breast cancer) at a single dose (10 μM) ([El-Sherief et al., 2018]). […] The most sensitive cells included leukemia (SR, K-562, and MOLT-4), lung (NCI-H522, […], and EKVX), breast (MCF-7 and T-47D), colon (HCT-15 and HT-29), and ovarian (NCI/ADR-RES).
(§2) The National Cancer Institute’s Developmental Therapeutic Program (www.dtp.nci.nih.gov) evaluated compounds 9–29 (excluding 21 and 22) against 60 cancer cell lines from nine categories (leukemia, lung, colon, CNS, melanoma, ovarian, renal, prostate, and breast cancer) at a single dose (10 μM) ([El-Sherief et al., 2018]). See Supplementary Material A1 for more details.

[3] = tested on: HCT-116; test: NCI-60 single-dose screen; conditions: Homo sapiens, single dose 10 µM, '-' = no inhibition, read-out: % Growth Inhibition
Protocol: as §1, §2

[4] = tested on: COLO 205; test: NCI-60 single-dose screen; conditions: Homo sapiens, single dose 10 µM, '-' = no inhibition, read-out: % Growth Inhibition
Protocol: as §1, §2

[5] = tested on: MDA-MB231/ATCC; test: NCI-60 single-dose screen; conditions: Homo sapiens, MDA-MB-231, single dose 10 µM, '-' = no inhibition, read-out: % Growth Inhibition
Protocol: as §1, §2

[6] = tested on: MALME-3M; test: NCI-60 single-dose screen; conditions: Homo sapiens, single dose 10 µM, '-' = no inhibition, read-out: % Growth Inhibition
Protocol: as §1, §2

[7] = tested on: MDA-MB-435; test: NCI-60 single-dose screen; conditions: Homo sapiens, single dose 10 µM, '-' = no inhibition, read-out: % Growth Inhibition
Protocol: as §1, §2

[8] = tested on: UO-31; test: NCI-60 single-dose screen; conditions: Homo sapiens, single dose 10 µM, '-' = no inhibition, read-out: % Growth Inhibition
Protocol: as §1, §2

[9] = tested on: SNB-19; test: NCI-60 single-dose screen; conditions: Homo sapiens, single dose 10 µM, '-' = no inhibition, read-out: % Growth Inhibition
Protocol: as §1, §2

[10] = tested on: SNB-75; test: NCI-60 single-dose screen; conditions: Homo sapiens, single dose 10 µM, '-' = no inhibition, read-out: % Growth Inhibition
Protocol: as §1, §2

[11] = tested on: RXF 393; test: NCI-60 single-dose screen; conditions: Homo sapiens, single dose 10 µM, '-' = no inhibition, read-out: % Growth Inhibition
Protocol: as §1, §2

[12] = tested on: HS 578T; test: NCI-60 single-dose screen; conditions: Homo sapiens, single dose 10 µM, '-' = no inhibition, read-out: % Growth Inhibition
Protocol: as §1, §2

[13] = tested on: PC-3; test: NCI-60 single-dose screen; conditions: Homo sapiens, single dose 10 µM, '-' = no inhibition, read-out: % Growth Inhibition
Protocol: as §1, §2

[14] = tested on: HOP-92; test: NCI-60 single-dose screen; conditions: Homo sapiens, single dose 10 µM, '-' = no inhibition, read-out: % Growth Inhibition
Protocol: as §1, §2

[15] = tested on: OVCAR-8; test: NCI-60 single-dose screen; conditions: Homo sapiens, single dose 10 µM, '-' = no inhibition, read-out: % Growth Inhibition
Protocol: as §1, §2

[16] = tested on: SF-539; test: NCI-60 single-dose screen; conditions: Homo sapiens, single dose 10 µM, '-' = no inhibition, read-out: % Growth Inhibition
Protocol: as §1, §2

[17] = tested on: UACC-257; test: NCI-60 single-dose screen; conditions: Homo sapiens, single dose 10 µM, '-' = no inhibition, read-out: % Growth Inhibition
Protocol: as §1, §2

[18] = tested on: NCI/ADR-RES; test: NCI-60 single-dose screen; conditions: Homo sapiens, single dose 10 µM, '-' = no inhibition, read-out: % Growth Inhibition
Protocol: as §1, §2

[19] = tested on: SR; test: NCI-60 single-dose screen; conditions: Homo sapiens, single dose 10 µM, '-' = no inhibition, read-out: % Growth Inhibition
Protocol: as §1, §2

[20] = tested on: EKVX; test: NCI-60 single-dose screen; conditions: Homo sapiens, single dose 10 µM, '-' = no inhibition, read-out: % Growth Inhibition
Protocol: as §1, §2

[21] = tested on: IGROV1; test: NCI-60 single-dose screen; conditions: Homo sapiens, IGROV-1, single dose 10 µM, '-' = no inhibition, read-out: % Growth Inhibition
Protocol: as §1, §2

[22] = tested on: A549/ATCC; test: NCI-60 single-dose screen; conditions: Homo sapiens, single dose 10 µM, '-' = no inhibition, read-out: % Growth Inhibition
Protocol: as §1, §2

[23] = tested on: OVCAR-3; test: NCI-60 single-dose screen; conditions: Homo sapiens, single dose 10 µM, '-' = no inhibition, read-out: % Growth Inhibition
Protocol: as §1, §2

[24] = tested on: SN12C; test: NCI-60 single-dose screen; conditions: Homo sapiens, single dose 10 µM, '-' = no inhibition, read-out: % Growth Inhibition
Protocol: as §1, §2

[25] = tested on: RPMI-8226; test: NCI-60 single-dose screen; conditions: Homo sapiens, single dose 10 µM, '-' = no inhibition, read-out: % Growth Inhibition
Protocol: as §1, §2

[26] = tested on: BT-549; test: NCI-60 single-dose screen; conditions: Homo sapiens, single dose 10 µM, '-' = no inhibition, read-out: % Growth Inhibition
Protocol: as §1, §2

[27] = Cell viability assay (MTT) on normal cells; conditions: human, MCF-10A normal mammary gland epithelial cells, 4 days incubation
Protocol: This experiment examines the impact of the newly developed compounds 9–29 on normal cell lines to assess their safety level. The vitality of the investigated compounds was assessed using the MCF-10 A cell line, a normal human mammary gland epithelial cell line. Following 4 days of incubation on MCF-10 A cells with each examined compound at a concentration of 50 μM, the vitality of the cells was assessed using the MTT test ([Mahmoud et al., 2022]; [Mekheimer et al., 2022]).
This experiment examines the impact of the newly developed compounds 9–29 on normal cell lines to assess their safety level. The viability of 9–29 was assessed using the MCF-10 A cell line, a normal human mammary gland epithelial cell line. Following 4 days of incubation on MCF-10 A cells with each examined compound at a concentration of 50 μM, the vitality of the cells was assessed using the MTT test ([Mahmoud et al., 2022]; [Mekheimer et al., 2022]). Refer to Supplementary Material A1 for more details. […]
4.2. Biological evaluation
4.2.1. Cytotoxic activity using MTT Assay and evaluation of IC50
MTT assay was carried out to study the effect of compounds on mammary epithelial cells (MCF-10A). The medium in which cells were propagated contained Dulbecco's modified Eagle's medium (DMEM)/ Ham's F-12 medium (1:1) supplemented with epidermal growth factor (20 ng/mL), hydrocortisone (500 ng/mL), insulin (10 μg/mL), 2 mM glutamine and 10% foetal calf serum.
After every 2-3 days, the cells were passaged using trypsin ethylenediamine tetra acetic acid (EDTA). The cells were seeded at a density of 10^4 cells mL-1 in flat-bottomed culture plates containing 96 wells each. After 24 h, medium was removed from the plates and the compounds in (in 0.1% DMSO) were added (in 200 μL medium to yield a final concentration of 0.1% v/v) to the wells of plates. A single compound was designated with four wells followed by incubation of plates for 96h at 37°C. After incubation, medium was removed completely from the plates followed by addition of MTT (0.4 mg/mL in medium) to each well and subsequent incubation of plates for 3h. MTT (along with the medium) was removed and DMSO (150μL) was added to each well of the culture plates, followed by vertexing and subsequent measurement of absorbance (at 540 nm) using microplate reader. The data are shown as percentage inhibition of proliferation in comparison with controls containing 0.1% DMSO. […]

SMILES | IC50 [1] [nM] | inhibition at 10 µM [2] [%] | inhibition at 10 µM [3] [%] | inhibition at 10 µM [4] [%] | inhibition at 10 µM [5] [%] | inhibition at 10 µM [6] [%] | inhibition at 10 µM [7] [%] | inhibition at 10 µM [8] [%] | inhibition at 10 µM [9] [%] | inhibition at 10 µM [10] [%] | inhibition at 10 µM [11] [%] | inhibition at 10 µM [12] [%] | inhibition at 10 µM [13] [%] | inhibition at 10 µM [14] [%] | inhibition at 10 µM [15] [%] | inhibition at 10 µM [16] [%] | inhibition at 10 µM [17] [%] | inhibition at 10 µM [18] [%] | inhibition at 10 µM [19] [%] | viability at 4 days, 50 µM [27] [%] | also measured
CCCSc1nc(-c2ccc(Cl)cc2)cc(-c2ccc(OC)cc2)n1 [Compound 11, 4-(4-Chlorophenyl)-6-(4-methoxyphenyl)-2-(propylthio)pyrimidine] | 54 | 4.02 | < 0 | < 0 | < 0 | < 0 | 1.63 | 9.15 | 1.03 | < 0 | < 0 | < 0 | < 0 | < 0 | 2.49 | < 0 | < 0 | < 0 | 14.6 | 89 | inhibition at 10 µM [20]: 6.92%; inhibition at 10 µM [21]: < 0%; inhibition at 10 µM [22]: 6.74%; inhibition at 10 µM [23]: < 0%; inhibition at 10 µM [24]: 6.25%; inhibition at 10 µM [25]: < 0%; inhibition at 10 µM [26]: < 0%
COc1ccc(-c2cc(-c3cccc(OC)c3)nc(SC(C)C)n2)cc1 [Compound 19, 2-(Isopropylthio)-6-(3-methoxyphenyl)-4-(4-methoxyphenyl)pyrimidine] | 30 | 11.6 | 23.8 | 0.02 | 17.3 | < 0 | 3.92 | 23.6 | 7.53 | < 0 | 18.9 | 4.95 | 17.2 | < 0 | 10.7 | 0.24 | < 0 | 9.86 | 27.6 | 90 | inhibition at 10 µM [20]: 22.7%; inhibition at 10 µM [21]: < 0%; inhibition at 10 µM [22]: 15.9%; inhibition at 10 µM [23]: < 0%; inhibition at 10 µM [24]: 18.5%; inhibition at 10 µM [25]: 10.1%; inhibition at 10 µM [26]: 6.85%
COc1ccc(CSc2nc(-c3ccc(OC)cc3)cc(-c3cccc(OC)c3)n2)cc1 [Compound 22, 2-(4-Methoxybenzylthio)-6-(3-methoxyphenyl)-4-(4-methoxyphenyl)pyrimidine] | 22 |  |  |  |  |  |  |  |  |  |  |  |  |  |  |  |  |  |  | 89 | 
COc1ccc(-c2cc(-c3ccc(Cl)cc3)nc(SC)n2)cc1 [Compound 9, 4-(4-Chlorophenyl)-6-(4-methoxyphenyl)-2-(methylthio)pyrimidine] | 62 | 28.7 | 5.47 | 0.19 | 20.4 | 11.3 | 1.45 | 18.1 | 4.85 | < 0 | 7.91 | 7.95 | 6.22 | 3.16 | 11 | 6.28 | 5.09 | 9.84 | 12.7 | 91 | inhibition at 10 µM [20]: 19.4%; inhibition at 10 µM [21]: 3.15%; inhibition at 10 µM [22]: 7.56%; inhibition at 10 µM [23]: < 0%; inhibition at 10 µM [24]: 11.2%; inhibition at 10 µM [25]: 10.8%; inhibition at 10 µM [26]: < 0%
CCCSc1nc(-c2ccc(Cl)cc2)cc(-c2ccc(OC)c(OC)c2)n1 [Compound 25, 4-(4-Chlorophenyl)-6-(3,4-dimethoxyphenyl)-2-(propylthio)pyrimidine] | 33 | 17.5 | < 0 | 31.7 | 16.2 | 7.34 | 0.34 | 8.18 | < 0 | 2.64 | 8.5 | < 0 | 6.31 | < 0 | 6.34 | 1.28 | 24.8 | 11.2 | 24.9 | 91 | inhibition at 10 µM [20]: 5.09%; inhibition at 10 µM [21]: < 0%; inhibition at 10 µM [22]: 17.3%; inhibition at 10 µM [23]: < 0%; inhibition at 10 µM [24]: < 0%; inhibition at 10 µM [25]: 10.8%; inhibition at 10 µM [26]: < 0%
